Data published in patent US11369588B2, “NADPH production by the 10-formyl-THF pathway, and its use in the diagnosis and treatment of disease” (The Trustees of Princeton University, priority 2014, dated 2022).
Several values for one entry are separate records, joined by “and”; a condition that tells them apart may be missing. Equal values may be shown once.

How the values were obtained:
[1] = test system: oxPPP; experiment: oxPPP tracing: NADPH labeling from 1-2H-glucose in 3T3-L1 cells; type: cell-based; conditions: proliferating 3T3-L1 cells, tracer fed 2 h
Experimental: In one embodiment, PPP activity is measured by incubating cultured adipocytes (e.g., 3T3-L1 adipocytes) in the presence of 1-^14C-glucose versus 6-^14C-glucose and detecting the released ^14CO2. The oxPPP releases C1 of glucose as CO2. The 6-^14C-glucose corrects for release of C1 by other pathways, because C1 and C6 are rendered identical by the triose phosphate isomerase step in glycolysis. After determining the oxPPP flux, the cells are provided with 1-^2H-glucose, which selectively labels NADPH in the first step (G6PDH) of the PPP.
Two complimentary methods were used to measure oxPPP activity in the proliferating and differentiating 3T3-L1 cells. First, cells were cultured in the presence of 1-^14C-Glucose versus 6-^14C-Glucose and the release of ^14CO2 was detected. The oxPPP releases C1 of glucose as CO2. The 6-^14C-Glucose corrects for release of C1 by other pathways, because C1 and C6 are rendered identical by the triose phosphate isomerase step in glycolysis. […] Next, cells were fed 1-^2H-Glucose, which selectively labels NADPH in the first step (G6PDH) of the oxPPP, and can therefore be used to determine the fraction of NADPH made by the oxPPP. In the proliferating cells, M+1 NADPH exceeded M+1 NADP+ by ˜16% (FIG. 18). […] In contrast, in the differentiating adipocytes, there was much less NADPH labeling from 1-^2H-Glucose. […]

[2] = test system: malic enzyme; experiment: Tracing hydride flux through malic enzyme with 2H tracers in 3T3-L1 cells (LC-MS labeling of malate, aspartate, NADPH, fatty acids); type: cell-based; conditions: for fraction of M+1 aspartate / fraction of M+1 malate / fraction of M+2 malate: differentiating 3T3-L1 adipocytes day 5; for fatty acid 2H-labeling, M+0 fraction / fatty acid 2H-labeling, M+1 fraction / fatty acid 2H-labeling, M+2 fraction: tracer 5 days
From the text: To more directly establish the contribution of malic enzyme to NADPH production, cells are provided with the ^2H-labeled succinate analogue, 2,2,3,3-^2H-dimethyl-succinate, and deuterium labeling is followed through the C2 hydride of malate to NADPH and finally to newly synthesized fatty acid molecules (FIGS. 15A-15F). Although any suitable labeled molecule may be used to trace hydride flux from malate to NADPH and subsequently into fat, it is preferred to use 2,2,3,3-^2H-dimethyl-succinate for the above purpose.
NADPH labeling at its redox active hydride was analyzed by comparing the M+1 fraction of NADPH to NADP+.
Converting the NADPH labeling fraction from 2,2,3,3-^2H-dimethyl-succinate into the fractional NADPH contribution of malic enzyme requires two important corrections: (i) fractional ^2H-labeling of malate's C2 hydride and (ii) the malic enzyme deuterium kinetic isotope effect (approximately 1.5).
2,2,3,3-^2H-dimethyl succinate was used to track hydride transfer mediated by malic enzyme. Tracer addition increased the cellular concentration of succinate without markedly perturbing other metabolite concentrations or fluxes. Labeling from 2,2,3,3-^2H-dimethyl succinate was followed through the C2 hydride of malate to NADPH and finally to newly synthesized fatty acids. NADPH labeling at its redox active hydride was analyzed by comparing the M+1 fraction of NADPH to NADP^+. […] Adjustment for the kinetic isotope effect in hydride transfer from NADPH to fat (˜1.1) (Yuan, Z. et al. (1984) “Elementary Steps in the Reaction Mechanism of Chicken Liver Fatty Acid Synthase,” 259:6748-6751) yields an associated cytosolic NADPH labeling fraction of 3.2%±0.5%, in excellent agreement with the directly measured whole cell NADPH labeling.
The NADPH labeling fraction from [2,2,3,3-^2H] dimethyl succinate was converted into the fractional NADPH contribution of malic enzyme is accordance with Equation 15. Forward flux from 2,2,3,3-^2H-succinate results in 2,3-^2H-malate, i.e., M+2 malate. The observed fraction of M+2 malate was, however, only 1.5%. The larger peak was M+1 malate (10.9%). Reverse flux through malate dehydrogenase can produce M+1 malate labeled at the C3 hydride (3-^2H-malate). As fumarate is symmetric, fumarase will interconvert 3-^2H-malate and 2-^2H-malate. Because malic enzyme will produce NADPH selectively from malate labeled at the C2 hydride, the relative abundance of 2-^2H-malate versus 3-^2H-malate was determined. 3-^2H-malate (and also 2,3-^2H-malate) yields M+1 oxaloacetate and aspartate, whereas 2-^2H-malate yields unlabeled oxaloacetate and aspartate. […] Summing 2-^2H-malate and 2,3-^2H-malate, the fraction of malate that is capable of making NADPH was 7.9%. Thus, while 2,2,3,3-^2H-dimethyl succinate labeled only approximately 3.2% of NADPH, after adjusting for the extent of malate labeling and the malic enzyme kinetic isotope effect, the fraction of NADPH generated via malic enzyme was calculated to be is approximately 60%.
4-^2H-glucose was therefore employed as a metabolic tracer. Cells were grown in 6 cm tissue culture dishes, and the labeled medium was replaced every day, and additionally 2 hours before extracting metabolites. Because labeling of glycolytic and oxPPP intermediates and the redox active hydride of NADPH reaches steady state over approximately 5 min, where for TCA intermediates this can take several hours, to ensure steady-state labeling, oxPPP tracing with 1-^2H-glucose and 1,2-^13C-glucose is performed for a minimum of 30 min and other labeling experiments for a minimum of 12 h. Metabolism is then quenched and metabolites extracted by aspirating media and immediately adding 2 mL −80° C. 80:20 methanol:water. After 20 min. of incubation on dry ice, the resulting mixture was scraped, collected into a centrifuge tube, and centrifuged at 10000 g for 5 min. Insoluble pellets were re-extracted with 1 mL −80° C. 80:20 methanol: water on dry ice. […]

[3] = test system: HEK293T cells; conditions: non-growing HEK293T cells, 150 μM H2O2, 5 h
Experimental: Total cytosolic NADPH turnover was measured based on the absolute oxPPP flux divided by the fractional contribution of the oxPPP to total NADPH as measured using NADP2H formation from 1-^2H-glucose. Mean±SD, N=3.

[4] = test system: methylene-THF oxidation pathway; experiment: Folate pathway tracing: NADPH labeling from 2,3,3-2H-serine in 3T3-L1 cells; type: cell-based
[5] = test system: HEK293T cells; conditions: 3 days, DMEM no serine, 5 mM glycine instead of 0.4 mM

Compound | fraction of M+1 aspartate [2] | fraction of M+1 malate [2] | fraction of M+2 malate [2] | fatty acid 2H-labeling, M+0 fraction ([2]; differentiating 3T3-L1 cells) | fatty acid 2H-labeling, M+1 fraction ([2]; differentiating 3T3-L1 cells) [%] | fatty acid 2H-labeling, M+2 fraction ([2]; differentiating 3T3-L1 cells) [%] | fatty acid 2H-labeling, M+0 fraction ([2]; proliferating 3T3-L1 cells) [%] | other results
[2H]C1(O)OC(CO)C(O)C(O)C1O (stereo not drawn) [1-^2H-Glucose] |  |  |  |  |  |  |  | excess of M+1 NADPH over M+1 NADP+ [1]: ~16%
[2H]C([2H])(C(=O)OC)C([2H])([2H])C(=O)OC [2,2,3,3-^2H-dimethyl succinate] | 6.0% | 10.9% | 1.5% | approximately 60% | ~30 | ~10 | 100 | fraction of 2-2H-malate ([2]; M+1 plus M+2 malate minus M+1 aspartate, differentiating 3T3-L1 adipocytes): approximately 6.4%; fraction of NADPH generated via malic enzyme ([2]; after adjusting for malate labeling and malic enzyme kinetic isotope effect, normoxic differentiating 3T3-L1 adipocytes): approximately 60%; fraction of malate capable of making NADP2H (2-2H-malate plus 2,3-2H-malate) ([2]; differentiating 3T3-L1 adipocytes): 7.9%; average hydride 2H-labeling fraction of a set of abundant fatty acids ([2]; differentiating 3T3-L1 adipocytes, newly synthesized fatty acids only): 2.87%±0.31%; total adipocyte (whole cell) NADPH labeled at redox active hydride ([2]; differentiating (day 5) 3T3-L1 adipocytes, tracer fed 24 h): 3.4%±0.3%
[2H][C@@]1(O)[C@@H](CO)OC(O)[C@H](O)[C@@H]1O (stereo partly drawn) [4-^2H-glucose] | 4.3% and 4.3 ± 0.1% | 12.3% and 12.3 ± 0.1% | 0.3% and 0.3 ± 0.0% | approximately 60% | ~35 | ~5 | 100 | 
OO [hydrogen peroxide] |  |  |  |  |  |  |  | total cytosolic NADPH production rate [3]: 5.5 nmol/µL/h
[2H]C([2H])(O)[C@]([2H])(N)C(=O)O [2,3,3-^2H-serine] |  |  |  |  |  |  |  | labeling of NADPH at its redox active hydride [4]: approximately 3%
NCC(=O)O [glycine] |  |  |  |  |  |  |  | cell growth (relative cell number) [5]: inhibit cell growth; relative NADPH/NADP+ ratio [5]: decrease the NADPH/NADP+ ratio
